Assay results from patent publication US20030087887A1, “Novel fusidic acid derivatives” (priority 2001, published 2003).
Values after ≈ are worked out from the molar mass of the structure shown. Where two headings read alike, the source gives them in different places.

Columns and labels:
Type in all cases: cell-based
[1] = tested on: Candida albicans ZA; test: MIC, agar diffusion, Candida albicans ZA; conditions: read-out: in vitro activities MIC
Excerpt: (§1) In vitro investigations have shown a relatively high potency of compounds of the invention against all bacteria including gram-positive and gram-negative strains (Staphylococci, Streptococci, Corynebacteriae, Mycobacteriae, Proteus, Propionibacterium, Pseudomonas, Neisseriae, E. coli) and fungal strains (Candida and Aspergillus). […] In addition, the studies of post-antibiotic effects point towards a strong bactericidal effect of the compounds of the invention. […] The potency of new polyaminated fusidic acid analogues is estimated by comparing the inhibition of growth of different microorganisms produced by known concentrations of the analogue to be examined and a reference compound such as fusidic acid. The microbiological assay set up is in agreement with the European Pharmacopoeia 3rd edition (1997). It is an agar diffusion method where the same volume of the tested solution is added to cavities in agar. The inhibition zones are function of the concentration of the fusidic acid analogue used. All assays are run with fusidic acid as reference substance.

[2] = tested on: Corynebacterium xerosis FF; test: MIC, agar diffusion, Corynebacterium xerosis FF; conditions: read-out: in vitro activities MIC
Excerpt: as §1

[3] = tested on: S. aureus CJ247; test: MIC, agar diffusion, S. aureus CJ247; conditions: Staphylococcus aureus, read-out: in vitro activities MIC
Excerpt: as §1

[4] = tested on: S. aureus CJ234F; test: MIC, agar diffusion, S. aureus CJ234F; conditions: Staphylococcus aureus; S. aureus CJ234F (MRSA, Fus. resistant); read-out: in vitro activities MIC
Excerpt: as §1

[5] = tested on: Streptococcus pyogenes EC88; test: MIC, agar diffusion, Streptococcus pyogenes EC88; conditions: read-out: in vitro activities MIC
Excerpt: as §1

[6] = tested on: E. coli HA165; test: MIC, agar diffusion, E. coli HA165; conditions: Escherichia coli, read-out: in vitro activities MIC
Excerpt: as §1

[7] = tested on: Asbergillus niger ZM35; test: MIC, agar diffusion, Asbergillus niger ZM35; conditions: Aspergillus niger, read-out: in vitro activities MIC
Excerpt: as §1

[8] = tested on: Saccaromyces cervisiae ZZ7; test: MIC, agar diffusion, Saccaromyces cervisiae ZZ7; conditions: Saccharomyces cerevisiae, read-out: in vitro activities MIC
Excerpt: as §1

[9] = tested on: Propionibacterium acnes FN33; test: MIC, agar diffusion, Propionibacterium acnes FN33; conditions: Cutibacterium acnes, read-out: in vitro activities MIC
Excerpt: as §1

[10] = tested on: S. aureus CJ200; test: MIC, agar diffusion, S. aureus CJ200; conditions: Staphylococcus aureus, read-out: in vitro activities MIC
Excerpt: as §1

[11] = tested on: S. aureus CJ234R; test: MIC, agar diffusion, S. aureus CJ234R; conditions: Staphylococcus aureus, read-out: in vitro activities MIC
Excerpt: as §1

[12] = tested on: Streptococcus faecium EI19; test: MIC, agar diffusion, Streptococcus faecium EI19; conditions: Enterococcus faecium; Streptococcus faecium EI19 (Penicillin resistant); read-out: in vitro activities MIC
Excerpt: as §1

[13] = tested on: S. epidermis CK5; test: MIC, agar diffusion, S. epidermis CK5; conditions: Staphylococcus epidermidis, read-out: in vitro activities MIC
Excerpt: as §1

[14] = tested on: Pseudomonas aeruginosa BA17; test: MIC, agar diffusion, Pseudomonas aeruginosa BA17; conditions: read-out: in vitro activities MIC
Excerpt: as §1

[15] = tested on: S. aureus N6; test: MIC, agar diffusion, S. aureus N6; conditions: Staphylococcus aureus; S. aureus N6 (Fus. resistant); read-out: in vitro activities MIC
Excerpt: as §1

With `CC(C)CCCC(C(=O)NCCCNCCCNCCCN)[C@@H]1CC[C@@]2(C)C1C[C@@H](O)C1[C@@]3(C)CC[C@@H](O)[C@@H](C)C3CC[C@@]12C` (stereo partly drawn) [Compound 145, 21-N-{[3′-({3′-[(3′-aminopropyl)amino]propyl}amino)propyl]}-16-desacetoxy-17R,20S,24,25-tetrahydrofusid-21-amide] the MIC [1] was > 125 µg/mL, the MIC [2] was 1 µg/mL (≈ 1.58 µM) and the MIC [3] was 1 µg/mL (≈ 1.58 µM). It also gave an MIC [4] of 1 µg/mL (≈ 1.58 µM), an MIC [5] of 4 µg/mL (≈ 6.32 µM) and an MIC [6] of 4 µg/mL (≈ 6.32 µM). For the same compound, the MIC [7] was > 125 µg/mL, the MIC [8] was 4 µg/mL (≈ 6.32 µM) and the MIC [9] was 1 µg/mL (≈ 1.58 µM). It also gave an MIC [10] of 1 µg/mL (≈ 1.58 µM), an MIC ([11]; MRSA) of 4 µg/mL (≈ 6.32 µM) and an MIC [12] of 4 µg/mL (≈ 6.32 µM). The MIC [13] was 1 µg/mL (≈ 1.58 µM), the MIC [14] was 4 µg/mL (≈ 6.32 µM) and the MIC [15] was 1 µg/mL (≈ 1.58 µM).

For `CC(=O)O[C@H]1C[C@@]2(C)C(C[C@@H](O)C3[C@@]4(C)CC[C@@H](OC(C)=O)[C@@H](C)C4CC[C@@]32C)[C@@H]1[C@H](CCCC(C)C)C(=O)NCCCNCCCCNCCCN` (stereo partly drawn) [Compound 173, 21-N-[3′-({4′-[(3′-aminopropyl)amino]butyl}amino)propyl]-3-OAc-17R,20S,24,25-tetrahydrofusid-21-amide], the MIC [1] was 125 µg/mL (≈ 167 µM), the MIC [2] was 4 µg/mL (≈ 5.35 µM) and the MIC [3] was 4 µg/mL (≈ 5.35 µM). The MIC [4] was 4 µg/mL (≈ 5.35 µM), the MIC [5] was 4 µg/mL (≈ 5.35 µM) and the MIC [6] was 4 µg/mL (≈ 5.35 µM). The MIC [7] was 125 µg/mL (≈ 167 µM), the MIC [8] was 4 µg/mL (≈ 5.35 µM) and the MIC [9] was 4 µg/mL (≈ 5.35 µM). It also gave an MIC [10] of 4 µg/mL (≈ 5.35 µM), an MIC ([11]; MRSA) of 1 µg/mL (≈ 1.34 µM) and an MIC [13] of 1 µg/mL (≈ 1.34 µM). It also gave an MIC [14] of 4 µg/mL (≈ 5.35 µM) and an MIC [15] of 4 µg/mL (≈ 5.35 µM).

In the case of `CC(=O)O[C@H]1C[C@@]2(C)[C@@H](C[C@@H](O)[C@H]3[C@@]4(C)CC[C@@H](O)[C@@H](C)[C@@H]4CC[C@@]32C)/C1=C(\CCC=C(C)C)C(=O)O` [FA, fusidic acid], the MIC [1] is reported as > 64 µg/mL, the MIC [2] is reported as 0.1 µg/mL (≈ 0.194 µM) and the MIC [3] is reported as 0.02 µg/mL (≈ 0.0387 µM). The MIC [4] was 16 µg/mL (≈ 31 µM), the MIC [5] was 16 µg/mL (≈ 31 µM) and the MIC [6] was > 64 µg/mL. The MIC [7] was > 64 µg/mL, the MIC [8] was > 64 µg/mL and the MIC [9] was 0.2 µg/mL (≈ 0.387 µM). The MIC [10] was 0.02 µg/mL (≈ 0.0387 µM), the MIC ([11]; S. aureus CJ234R (MRSA, Rifampicin resistant)) was 0.02 µg/mL (≈ 0.0387 µM) and the MIC [13] was 0.02 µg/mL (≈ 0.0387 µM). For the same compound, the MIC [14] was > 64 µg/mL and the MIC [15] was 16 µg/mL (≈ 31 µM).
